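GI50: concentration for 50% inhibition of growth. TGI: total growth inhibition.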
Key:
Assay in all cases: growth of human tumour cells (NCI), 384-well format
MDA-MB-468 breast = tested on: MDA-MB-468 breast
UACC-257 melanoma = tested on: UACC-257 melanoma
NCI/ADR-RES ovarian = tested on: NCI/ADR-RES ovarian
SW-620 colon = tested on: SW-620 colon
EKVX NSCLC = tested on: EKVX NSCLC
A549 NSCLC = tested on: A549 NSCLC
786-0 renal = tested on: 786-0 renal
SN12C renal = tested on: SN12C renal
SF-268 CNS = tested on: SF-268 CNS
LOX IMVI melanoma = tested on: LOX IMVI melanoma
SK-MEL-28 melanoma = tested on: SK-MEL-28 melanoma
OVCAR-8 ovarian = tested on: OVCAR-8 ovarian
RXF 393 renal = tested on: RXF 393 renal
SNB-75 CNS = tested on: SNB-75 CNS
DU-145 prostate = tested on: DU-145 prostate
CCRF-CEM leukemia = tested on: CCRF-CEM leukemia
HCT-15 colon = tested on: HCT-15 colon
K-562 leukemia = tested on: K-562 leukemia
HL-60(TB) leukemia = tested on: HL-60(TB) leukemia
NCI-H522 lung = tested on: NCI-H522 lung
UO-31 renal = tested on: UO-31 renal
T-47D breast = tested on: T-47D breast
HOP-92 NSCLC = tested on: HOP-92 NSCLC
HS 578T breast = tested on: HS 578T breast
HOP-62 NSCLC = tested on: HOP-62 NSCLC
SK-MEL-2 melanoma = tested on: SK-MEL-2 melanoma
TK-10 renal = tested on: TK-10 renal
MCF7 breast = tested on: MCF7 breast
HT29 colon = tested on: HT29 colon
HCC-2998 colon = tested on: HCC-2998 colon
OVCAR-4 ovarian = tested on: OVCAR-4 ovarian
SNB-19 CNS = tested on: SNB-19 CNS
OVCAR-3 ovarian = tested on: OVCAR-3 ovarian
OVCAR-5 ovarian = tested on: OVCAR-5 ovarian
HCT-116 colon = tested on: HCT-116 colon
PC-3 prostate = tested on: PC-3 prostate
MALME-3M melanoma = tested on: MALME-3M melanoma
IGROV1 ovarian = tested on: IGROV1 ovarian
M14 melanoma = tested on: M14 melanoma
MDA-MB-435 melanoma = tested on: MDA-MB-435 melanoma
NCI-H460 NSCLC = tested on: NCI-H460 NSCLC
BT-549 breast = tested on: BT-549 breast
U251 glioblastoma = tested on: U251 glioblastoma
UACC-62 melanoma = tested on: UACC-62 melanoma
SK-OV-3 ovarian = tested on: SK-OV-3 ovarian
RPMI-8226 leukemia = tested on: RPMI-8226 leukemia
NCI-H23 lung = tested on: NCI-H23 lung

With `CC[C@H](Nc1ncnc2nc[nH]c12)c1oc2ccccc2c(=O)c1-c1cccc(F)c1` the GI50 (MDA-MB-468 breast) was 9.6 µM, the TGI (MDA-MB-468 breast) was 27.2 µM and the GI50 (UACC-257 melanoma) was 33 µM. The TGI (UACC-257 melanoma) was > 87.9 µM, the GI50 (NCI/ADR-RES ovarian) was 24 µM and the TGI (NCI/ADR-RES ovarian) was 60.4 µM. For the same compound, the GI50 (SW-620 colon) was 48.7 µM, the TGI (SW-620 colon) was > 81.2 µM and the GI50 (EKVX NSCLC) was 23.8 µM. For the same compound, the TGI (EKVX NSCLC) was 70.7 µM, the GI50 (A549 NSCLC) was 27.9 µM and the TGI (A549 NSCLC) was > 100 µM. For the same compound, the GI50 ([…]-0 renal) was 27.2 µM, the TGI (786-0 renal) was > 95 µM and the GI50 (SN12C renal) was 30.5 µM. The TGI (SN12C renal) was 98.9 µM, the GI50 (SF-268 CNS) was 29.8 µM and the TGI (SF-268 CNS) was > 89.4 µM. For the same compound, the GI50 (LOX IMVI melanoma) was 26.3 µM, the TGI (LOX IMVI melanoma) was 82.1 µM and the GI50 (SK-MEL-28 melanoma) was 27.7 µM. For the same compound, the TGI (SK-MEL-28 melanoma) was > 86.1 µM, the GI50 (OVCAR-8 ovarian) was 32.6 µM and the TGI (OVCAR-8 ovarian) was > 100 µM. For the same compound, the GI50 (RXF 393 renal) was 21.1 µM, the TGI (RXF 393 renal) was > 69.5 µM and the GI50 (SNB-75 CNS) was 23.2 µM. The TGI (SNB-75 CNS) was 60.7 µM, the GI50 (DU-145 prostate) was 29.6 µM and the TGI (DU-145 prostate) was > 100 µM. For the same compound, the GI50 (CCRF-CEM leukemia) was 16.8 µM, the TGI (CCRF-CEM leukemia) was 31 µM and the GI50 (HCT-15 colon) was 30.7 µM. The TGI (HCT-15 colon) was 99.1 µM, the GI50 (K-562 leukemia) was 26.5 µM and the TGI (K-562 leukemia) was > 96.6 µM. It also gave a GI50 (HL-60(TB) leukemia) of 21.8 µM, a TGI (HL-60(TB) leukemia) of 36.6 µM and a GI50 (NCI-H522 lung) of 20.6 µM. For the same compound, the TGI (NCI-H522 lung) was 47.7 µM, the GI50 (UO-31 renal) was 3.16 µM and the TGI (UO-31 renal) was > 100 µM. For the same compound, the GI50 (T-47D breast) was 24.4 µM, the TGI (T-47D breast) was > 86.2 µM and the GI50 (HOP-92 NSCLC) was 14.6 µM. For the same compound, the TGI (HOP-92 NSCLC) was 39.1 µM, the GI50 (HS 578T breast) was 15.1 µM and the TGI (HS 578T breast) was 37.2 µM. The GI50 (HOP-62 NSCLC) was 30.1 µM, the TGI (HOP-62 NSCLC) was > 100 µM and the GI50 (SK-MEL-2 melanoma) was 13.7 µM. For the same compound, the TGI (SK-MEL-2 melanoma) was 30.1 µM, the GI50 (TK-10 renal) was 29.8 µM and the TGI (TK-10 renal) was > 95.2 µM. For the same compound, the GI50 (MCF7 breast) was 29.6 µM, the TGI (MCF7 breast) was > 87.3 µM and the GI50 (HT29 colon) was 32.3 µM. The TGI (HT29 colon) was > 100 µM, the GI50 (HCC-2998 colon) was 32.6 µM and the TGI (HCC-2998 colon) was 80 µM. It also gave a GI50 (OVCAR-4 ovarian) of 17.9 µM, a TGI (OVCAR-4 ovarian) of 54.2 µM and a GI50 (SNB-19 CNS) of 37.1 µM. For the same compound, the TGI (SNB-19 CNS) was > 100 µM, the GI50 (OVCAR-3 ovarian) was 18.2 µM and the TGI (OVCAR-3 ovarian) was 40.8 µM. The GI50 (OVCAR-5 ovarian) was 39.9 µM, the TGI (OVCAR-5 ovarian) was > 100 µM and the GI50 (HCT-116 colon) was 36.9 µM. For the same compound, the TGI (HCT-116 colon) was > 100 µM, the GI50 (PC-3 prostate) was 18.5 µM and the TGI (PC-3 prostate) was 52.6 µM. For the same compound, the GI50 (MALME-3M melanoma) was 23.6 µM, the TGI (MALME-3M melanoma) was 62.8 µM and the GI50 (IGROV1 ovarian) was 24.1 µM. The TGI (IGROV1 ovarian) was 59.2 µM, the GI50 (M14 melanoma) was 37.7 µM and the TGI (M14 melanoma) was > 100 µM. The GI50 (MDA-MB-435 melanoma) was 24.2 µM, the TGI (MDA-MB-435 melanoma) was 56.5 µM and the GI50 (NCI-H460 NSCLC) was 34.7 µM. For the same compound, the TGI (NCI-H460 NSCLC) was > 100 µM, the GI50 (BT-549 breast) was 15.5 µM and the TGI (BT-549 breast) was 39.5 µM. For the same compound, the GI50 (U251 glioblastoma) was 31 µM, the TGI (U251 glioblastoma) was > 100 µM and the GI50 (UACC-62 melanoma) was 16.3 µM. It also gave a TGI (UACC-62 melanoma) of 36.8 µM, a GI50 (SK-OV-3 ovarian) of 24.5 µM and a TGI (SK-OV-3 ovarian) of 63.8 µM. The GI50 (RPMI-8226 leukemia) was 8.38 µM, the TGI (RPMI-8226 leukemia) was 20.5 µM and the GI50 (NCI-H23 lung) was 23.9 µM. It also gave a TGI (NCI-H23 lung) of 78.3 µM.
